Measurements taken from patent publication US20260008818A1, “CYCLIC PEPTIDE OR SALT THEREOF, AND USES THEREOF” (FUJIFILM Corporation, priority 2023, published 2026).
Bridge positions count the residues as written; N and C are the ends. Square brackets hold non-standard residues; d marks the D form. Ends that are not written are not given here. COCH2 = acetyl group that carries the bridge; hCys = N[C@@H](CCS)C(=O)O; Orn = NCCC[C@H](N)C(=O)O; Dab = NCC[C@H](N)C(=O)O; Dap = NC[C@H](N)C(=O)O

T1: Recombinant Human FGFR1 alpha (IIIc) Fc Chimera Protein, CF (R&D systems, 658-FR-050) (human, UniProt P11362 22-376)
T1 construct: bought reagent; not shown: Fc of the bought chimera
T1 sequence (looked up): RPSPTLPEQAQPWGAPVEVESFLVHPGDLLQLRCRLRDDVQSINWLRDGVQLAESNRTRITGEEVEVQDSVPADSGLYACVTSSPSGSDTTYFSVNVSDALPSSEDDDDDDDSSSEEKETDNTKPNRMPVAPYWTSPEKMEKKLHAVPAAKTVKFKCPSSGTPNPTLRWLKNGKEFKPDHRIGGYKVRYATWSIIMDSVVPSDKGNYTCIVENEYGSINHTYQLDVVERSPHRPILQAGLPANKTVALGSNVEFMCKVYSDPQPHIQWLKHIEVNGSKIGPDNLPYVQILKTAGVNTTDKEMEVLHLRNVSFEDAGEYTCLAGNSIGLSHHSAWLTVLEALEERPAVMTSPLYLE


Experiments:
[1] = system: Recombinant Human FGFR1 alpha (IIIc) Fc Chimera Protein; test: Binding affinity of enzymatically synthesized cyclic peptide to FGFR by ELISA; settings: luminescence signal at reaction concentration 10 nmol/L, SEQ ID NO: 39 standardized to 1, enzyme synthesis product
Procedure, shortened: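 Plate-immobilized FGFR1α(IIIc)-Fc (5 ng/well) incubated with Myc-tagged cyclic peptide 3 h at room temperature; bound peptide detected with anti-Myc antibody (2 h) and chemiluminescence. Signal is FGFR minus no-FGFR wells, normalized to SEQ ID NO: 39 at 10 nmol/L and graded A–D.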

[2] = biological target: T1, Recombinant Human FGFR1 alpha (IIIc) Fc …; test: SPR, FGFR1-Fc immobilized, 10 nmol/L peptide
Procedure: A CM5 sensor chip (Cytiva, 29149603) was set in Biacore-T200 (manufactured by Cytiva) which is a surface plasmon resonance device, and an HBS-EP buffer (Cytiva, BR100826) was added as a running buffer at a flow rate of 10 μL/min to equilibrate the flow channel. Next, 70 μL of a mixed aqueous solution of 0.2 mol/L 1-(3-dimethylaminopropyl)-3-ethylcarbodiimide (EDC) and 0.05 mol/L N-hydroxysuccinimide (NHS) was added to activate the sensor chip. Then, Recombinant Human FGFR 1 alpha (IIIc) Fc Chimera Protein CF (R&D systems, 658-FR-050) prepared at 50 nmol/L in an Acetate 4.5 buffer (Cytiva, BR100350) was added thereto to perform immobilization at about 5000 RU. Thereafter, the blocking treatment was performed with an ethanolamine solution. In addition, in another flow channel of the same sensor chip, blocking treatment was performed immediately after activation without immobilizing FGFR.
A cyclic peptide diluted to 10 nmol/L using HBS-EP was added to each flow channel of the FGFR-immobilized sensor chip produced above at 25° C. for 10 minutes, then HBS-EP was allowed to flow as a running buffer for 30 minutes, and the binding of the cyclic peptide to FGFR was measured. Thereafter, a regeneration treatment of removing the bound cyclic peptide was performed by repeating the flow of a regeneration liquid in which sodium chloride powder was dissolved in Glysine 1.5 (Cytiva, BR100354) to a final concentration of 0.15 mol/L for 1 minute in each flow channel twice. The binding amount of the cyclic peptide was evaluated from the difference between the measured value of Biacore-T200 in the flow channel in which FGFR was immobilized and the measured value of Biacore-T200 in the flow channel in which FGFR was not immobilated, in a case where a 10 nmol/L cyclic peptide was allowed to flow.

Row | Molecule | Evaluation result of binding affinity to FGFR [1] | binding amount (SPR, cyclic peptide molecules bound per one molecule of FGFR at 10 nmol/L peptide) [2]
1 | 119 (HCSYERLQFHGHEAPYRVK(COCH2)V; thioether 2-19 (inferred)) [compound 119] | C (0.1 or more and less than 0.5) | –
2 | 34 (CRALLRGAPFHLAEC; disulfide 1-15) [compound 34] | D (less than 0.1) | –
3 | 331 (HCSYERLIFHGHLAPFWVK(COCH2)V; thioether 2-19 (inferred)) [compound 331] | A (0.7 or more) | –
4 | 368 (ECKVHLHPWGAPFWIK(COCH2)S; thioether 2-16) [compound 368] | C (0.1 or more and less than 0.5) | –
5 | 171 (HCSYERLQFQGHEAPFRVK(COCH2)V; thioether 2-19 (inferred)) [compound 171] | A (0.7 or more) | –
6 | 316 (HCTWERLVFLGHIAPFWVK(COCH2)R; thioether 2-19 (inferred)) [compound 316] | C (0.1 or more and less than 0.5) | –
7 | 193 (HCSYERLQFHGHEAPFVVK(COCH2)V; thioether 2-19 via Ac) [compound 193] | A (0.7 or more) | –
8 | 111 (HCSYERLQFHGYEAPFRVK(COCH2)V; thioether 2-19 (inferred)) [compound 111] | C (0.1 or more and less than 0.5) | –
9 | 319 (HCTWERLIFQGHIAPFWVK(COCH2)R; thioether 2-19 (inferred)) [compound 319] | C (0.1 or more and less than 0.5) | –
10 | 292 (HCSYERLQFHGHEAPFKVK(COCH2)V; thioether 2-19 (inferred)) [compound 292] | B (0.5 or more and less than 0.7) | –
11 | 362 (WCHYAPFWVLNEGQLK(COCH2)V; thioether 2-16) [compound 362] | C (0.1 or more and less than 0.5) | –
12 | 356 (ACWLRHIYQGHKAPFLIWSTK(COCH2)S; thioether 2-21) [compound 356] | B (0.5 or more and less than 0.7) | –
13 | 341 (ACLPFLRIIIAGHWAPFLAK(COCH2)H; thioether 2-20) [compound 341] | C (0.1 or more and less than 0.5) | –
14 | 288 (HCSYERLQFKGHEAPFRVK(COCH2)V; thioether 2-19 (inferred)) [compound 288] | B (0.5 or more and less than 0.7) | –
15 | 330 (HCSYERLVFHGHIAPFWVK(COCH2)V; thioether 2-19 (inferred)) [compound 330] | A (0.7 or more) | –
16 | 352 (ICINRLSQGTHFAPFWLVEYK(COCH2)N; thioether 2-21) [compound 352] | B (0.5 or more and less than 0.7) | –
17 | 340 (HCLVKRLVSAWGELAPFWVK(COCH2)V; thioether 2-20) [compound 340] | C (0.1 or more and less than 0.5) | –
18 | 266 (PCSWVQLQYQGFTAPFLVK(COCH2)Y; thioether 2-19 (inferred)) [compound 266] | C (0.1 or more and less than 0.5) | –

Row | Molecule | Evaluation result of binding affinity to FGFR [1] | binding amount (SPR, cyclic peptide molecules bound per one molecule of FGFR at 10 nmol/L peptide) [2]
19 | 134 (HCSYHRLQFHGHEAPFRVK(COCH2)V; thioether 2-19 (inferred)) [compound 134] | A (0.7 or more) | –
20 | 232 (HK(COCH2)TYERLIFLGHIAPFWVCR; thioether 2-19 (inferred)) [compound 232] | B (0.5 or more and less than 0.7) | –
21 | XSYERLIFHGHEAPFWVXVKKK (not fully specified; Orn(acetyl); Hcy; thioether ring (Orn(acetyl))-(Hcy), chemically synthesized) [SEQ ID NO: 390] | – | 0.1 to 0.5 moleculesofthecyclicpeptide/onemoleculeoffgfr
22 | H[hCys]SYERLQFHGHEAPFRV[Dap]VKKK (bridge 2-19; not fully specified (residue 19, bridges); printed as H-(Hcy)-SYERLQFHGHEAPFRV-(Dap(acetyl))-VKKK, chemically synthesized) [SEQ ID NO: 377] | – | ≥ 0.7 moleculesofthecyclicpeptide/onemoleculeoffgfr
23 | HXSYERLQFHGHEAPFRVXVKKK (not fully specified; Orn(acetyl); Hcy; thioether ring (Orn(acetyl))-(Hcy), chemically synthesized) [SEQ ID NO: 379] | – | ≥ 0.7 moleculesofthecyclicpeptide/onemoleculeoffgfr
24 | HXSYERXIFHGHEAPFWVXVKKK (not fully specified; Hle (homoleucine); Orn(acetyl); Hcy; thioether ring (Orn(acetyl))-(Hcy), chemically synthesized) [SEQ ID NO: 388] | – | ≥ 0.7 moleculesofthecyclicpeptide/onemoleculeoffgfr
25 | H[hCys]SYERLQFHGHEAPFRVKVKKK (bridge 2-19; not fully specified (residue 19, bridges); printed as H-(Hcy)-SYERLQFHGHEAPFRV-(K(acetyl))-VKKK, chemically synthesized) [SEQ ID NO: 374] | – | ≥ 0.7 moleculesofthecyclicpeptide/onemoleculeoffgfr
26 | XSYERLIFHGHEAPFWVXKKK (not fully specified; Orn(acetyl); Hcy; thioether ring (Orn(acetyl))-(Hcy), chemically synthesized) [SEQ ID NO: 385] | – | 0.1 to 0.5 moleculesofthecyclicpeptide/onemoleculeoffgfr
27 | H[Dap]SYERLQFHGHEAPFRV[hCys]VKKK (bridge 2-19; not fully specified (residue 2, bridges); printed as H-(Dap(acetyl))-SYERLQFHGHEAPFRV-(Hcy)-VKKK, chemically synthesized) [SEQ ID NO: 381] | – | ≥ 0.7 moleculesofthecyclicpeptide/onemoleculeoffgfr
28 | HKSYERLQFHGHEAPFRV[hCys]VKKK (bridge 2-19; not fully specified (residue 2, bridges); printed as H-(K(acetyl))-SYERLQFHGHEAPFRV-(Hcy)-VKKK, chemically synthesized) [SEQ ID NO: 378] | – | ≥ 0.7 moleculesofthecyclicpeptide/onemoleculeoffgfr
29 | H[Dab]SYERLQFHGHEAPFRV[hCys]VKKK (bridge 2-19; not fully specified (residue 2, bridges); printed as H-(Dab(acetyl))-SYERLQFHGHEAPFRV-(Hcy)-VKKK, chemically synthesized) [SEQ ID NO: 380] | – | ≥ 0.7 moleculesofthecyclicpeptide/onemoleculeoffgfr
30 | H[hCys]SYERLQFHGHEAPFRV[Orn]VKKK (bridge 2-19; not fully specified (residue 19, bridges); printed as H-(Hcy)-SYERLQFHGHEAPFRV-(Orn(acetyl))-VKKK, chemically synthesized) [SEQ ID NO: 375] | – | ≥ 0.7 moleculesofthecyclicpeptide/onemoleculeoffgfr
31 | HXSYERLIFHGHEAPFWVXVKKK (not fully specified; meL (N-methyl leucine); Orn(acetyl); Hcy; thioether ring (Orn(acetyl))-(Hcy), chemically synthesized) [SEQ ID NO: 387] | – | ≥ 0.7 moleculesofthecyclicpeptide/onemoleculeoffgfr
32 | HXSYERLIFHGHEAPFWVXVKKK (not fully specified; Orn(acetyl); Hcy; thioether ring (Orn(acetyl))-(Hcy), chemically synthesized) [SEQ ID NO: 384] | – | ≥ 0.7 moleculesofthecyclicpeptide/onemoleculeoffgfr
33 | H[hCys]SYERLQFHGHEAPFRV[Dab]VKKK (bridge 2-19; not fully specified (residue 19, bridges); printed as H-(Hcy)-SYERLQFHGHEAPFRV-(Dab(acetyl))-VKKK, chemically synthesized) [SEQ ID NO: 376] | – | ≥ 0.7 moleculesofthecyclicpeptide/onemoleculeoffgfr
34 | Ac-HASYERLIFHGHEAPFWVCVKKK (bridge N-19; not fully specified; printed as (Ac)-HASYERLIFHGHEAPFWV-(C)-VKKK, chemically synthesized) [SEQ ID NO: 386] | – | 0.5 to 0.7 moleculesofthecyclicpeptide/onemoleculeoffgfr
35 | HXSYERLIFHGHEAPFWVXKKK (not fully specified; Orn(acetyl); Hcy; thioether ring (Orn(acetyl))-(Hcy), chemically synthesized) [SEQ ID NO: 389] | – | ≥ 0.7 moleculesofthecyclicpeptide/onemoleculeoffgfr
